Experiments:
Pf (3D7) = assay: Ligand efficiency metrics (LE, LLE, LELP), selectivity and fold changes; design: species or system Plasmodium falciparum
[1] = Plasma protein binding (equilibrium dialysis); format: in vitro ADME; details: female, NMRI; mouse plasma protein binding; read-out: PPB (converted)
Procedure: by the addition of excess NADPH (8 mg/mL 50 mM potassium phosphate buffer, pH 7.4).
Immediately, at time zero, then at 3, 6, 9, 15 and 30 min an aliquot (50 μL) of the incubation mixture was removed and mixed with acetonitrile (100 μL) to stop the reaction. Internal standard was added to all samples, the samples centrifuged to sediment precipitated protein and the plates then sealed prior to UPLC-MS/MS analysis using a Quattro Premier XE (Waters Corporation, USA).
XLfit (IDBS, UK) was used to calculate the exponential decay and consequently the rate constant (k) from the ratio of peak area of test compound to internal standard at each timepoint. The rate of intrinsic clearance (CLi) of each test compound was then calculated using the following calculation:
CLi (mL/min/g liver) = k x V x Microsomal protein yield
Where V (mL/mg protein) is the incubation volume/mg protein added and microsomal protein yield is taken as 52.5 mg protein per g liver. Verapamil (0.5 µM) was used as a positive control to confirm acceptable assay performance. Experiments were performed using a single time-course experiment.
Plasma Protein Binding (PPB) experiments
This was based on a previously described method, with the exception that NMRI mouse plasma was used here.8 In brief, a 96 well equilibrium dialysis apparatus was used to determine the free fraction in plasma for each compound (HT Dialysis LLC, Gales Ferry, CT). Membranes (12-14 kDA cut-off) were conditioned in deionised water for 60 min, followed by conditioning in 80:20 deionised water:ethanol for 20 min, and then rinsed in isotonic buffer before use. Female CD1 mouse plasma was removed from the freezer and allowed to thaw on the day of experiment. Thawed plasma was then centrifuged (Allegra X12-R, Beckman Coulter, USA), spiked with test compound (final concentration 10 μg/mL), and 150 μL aliquots (n=6 replicate determinations) loaded into the 96-well equilibrium dialysis plate. Dialysis against isotonic buffer (150 µL) was carried out for 5 h in a temperature controlled incubator at ~37 °C (Barworld scientific Ltd, UK) using an orbital microplate shaker at 100 revolutions/minute (Barworld Scientific Ltd, UK). At the end of the incubation period, 50 μL aliquots of plasma or buffer were transferred to micronic tubes (Micronic B.V., the Netherlands) and the composition in each tube balanced with control fluid (50 μL), such that the volume of buffer to plasma is the same. Sample extraction was performed by the addition of 200 µL of acetonitrile containing an appropriate internal standard. Samples were allowed to mix for 1 min and then centrifuged at 3000 rpm in 96-well blocks for 15 min (Allegra X12-R, Beckman Coulter, USA) after which 150 μL of supernatant was removed to 50 μL of water. All samples were analysed by UPLC-MS/MS on a Quattro Premier XE Mass Spectrometer (Waters Corporation, USA). The unbound fraction was determined as the ratio of the peak area in buffer to that in plasma. Experiments […]
Parallel Artificial Membrane Permeability Assay (PAMPA)
PAMPA was performed using a 96-well pre-coated BD Gentest™ PAMPA plate (BD Biosciences, U.K.). Each well was divided into two chambers; donor and acceptor, separated by a lipid-oil-lipid tri-layer constructed in a porous filter. The effective permeability, Pe, of the compound was measured at pH 7.4. Stock solutions (5 mM) of the compound were prepared in DMSO. The compound was then further diluted to 10 µM in phosphate buffered saline at pH 7.4. […]

[2] = Experimental pKa by potentiometric titration; format: physicochemical; details: value in parentheses, read-out: R^3 group pKa, experimental
Excerpt: Table 4 SAR Study of the R^3 Substituent: Aromatic Groups | column: R^3 group pKa^a

[3] = Intrinsic clearance (Cli) in rat liver microsomes; format: in vitro ADME; details: rat liver microsome
Excerpt: inhibition at top, C= EC50, D= slope, x= inhibitor concentration and y= % inhibition. […]
reach 100% of inhibition, B was fixed to 100 only when at least 50% of inhibition was reached.
Plasmodium falciparum late stage (IV-V) gametocyte high content imaging assay Plasmodium falciparum NF54-pfs16-LUC-GFP stage IV-V Gametocytes were produced as described previously.5 Compounds were solubilized in DMSO and serially diluted in three concentrations per log standard curves in DM SO. One µl of compound was subsequently diluted in 25µl of water (4% DMSO) and 5µl transferred into the base of 384 well PerkinElmer CellCarrier plates. Forty-five µl of stage IV-V gametocytes (10%P in 0.1%H) were added to the imaging plates which were in turn sealed with a gas permeable membrane and incubated at 37°C, 5% CO 2, 5% O2, 90% N2 and 60% humidity […]
Post incubation, 5µl of MitoTracker® Red CM -H2Xros (MTR) solution (0.66ug/ml) was added to all wells and the plates incubated for a further 16hours. The assay plates were then imaged and the number of viable gametocytes determined for test compounds plus 0.4%DMSO and 5µM Puromycin.
(0.4%DMSO) control values. Percent inhibition was plotted against log compound concentration using a 4 parameter log dose, non-linear regression analysis, with sigmoidal dose response (variable slope) curve fit using Prizm 4.0. IC50 values were obtained from this curve fit. The compound testing was performed in duplicate point within two separate experiments.
Plasmodium berghei ookinete development assay
Assay was performed as previously reported.6 Briefly blood containing P. berghei CTRPp-GFP gametocytes was rapidly harvested from infected mice and introduced to test compounds pre-diluted in ookinete medium (to induce gamete formation and support ookinete development) in 96-well plates. Plates were incubated in the dark at 21°C for 22 hr before GFP fluorescence intensity measured in a plate reader. % inhibition of ookinete formation was calculated with reference to the fluorescence intensity values of a positive control (20 µM cycloheximide) and a solvent-only negative control (DMSO). All assays were performed in triplicate independent experiments and EC50 values calculated in Graphpad Prism.
The aqueous solubility of the test compounds was measured using laser nephelometry, as described previously.7 Compounds were subject to serial dilution from 10 mg/mL to 0.5 mg/mL in DMSO. An aliquot was then mixed with MilliQ water to obtain an aqueous dilution plate with a final concentration range of 100 – 5 μg/mL, with a final DMSO concentration of 1.0%. Triplicate aliquots were transferred to a flat bottomed polystyrene plate which was immediately read on the NEPHELOstar (BMG Lab Technologies). The amount of laser scatter caused by insoluble particulates (relative nephelometry units, RNU) was plotted against compound concentration using a segmental regression fit, with the point of inflection being quoted as the compounds aqueous solubility (μg/mL; […]
Intrinsic Clearance (Cli) experiments
The procedure was carried out as reported previously.7 Test compound (0.5 µM) was incubated with female CD1 mouse, male sprague-dawley rat or pooled human mixed gender liver microsomes (Xenotech LLC TM; 0.5 mg/mL 50 mM potassium phosphate buffer, pH 7.4) and the reaction initiated […]
by the addition of excess NADPH (8 mg/mL 50 mM potassium phosphate buffer, pH 7.4). […]

fraction unbound at 5 h, 10 μg/mL [1] | pKa [2] | RLM Cli [3] | SMILES | LLE (ligand-lipophilicity efficiency) (Pf (3D7)) | improvement / increase in potency (Pf (3D7); Pf (3D7), relative to the comparator compound of the sentence)
 | 6.3 | <0.5 mL min^–1 g^–1 | O=C(NCCN1CCCC1)c1cc(-c2ccc(CN3CCOCC3)cc2F)nc2ccc(F)cc12 [Compound 41] |  | 
0.25 |  |  | O=C(NCCN1CCCC1)c1cc(-c2ccc(S(=O)(=O)N3CCOCC3)cc2)nc2ccc(F)cc12 [Compound 38, 6-Fluoro-2-(4-(morpholinosulfonyl)phenyl)-N-(2-(pyrrolidin-1-yl)ethyl)quinoline-4-carboxamide] |  | 
0.44 | 6.3 |  | O=C(NCCN1CCCC1)c1cc(-c2ccc(CN3CCOCC3)cc2Cl)nc2ccc(F)cc12 [Compound 42, 2-(2-Chloro-4-(morpholinomethyl)phenyl)-6-fluoro-N-(2-(pyrrolidin-1-yl)ethyl)quinoline-4-carboxamide] |  | 
0.23 |  | 0.8 mL min^–1 g^–1 | O=C(NCCN1CCCC1)c1cc(NCCC2CCOCC2)nc2ccc(Cl)cc12 [Compound 30, 6-Chloro-N-(2-(pyrrolidin-1-yl)ethyl)-2-((2-(tetrahydro-2H-pyran-4-yl)ethyl)amino)quinoline-4-carboxamide] |  | 

SMILES | fraction unbound at 5 h, 10 μg/mL [1] | pKa [2] | RLM Cli [3] | LLE (ligand-lipophilicity efficiency) (Pf (3D7)) | improvement / increase in potency (Pf (3D7); Pf (3D7), relative to the comparator compound of the sentence)
O=C(NCCN1CCCC1)c1cc(NCCCCN2CCOCC2)nc2ccc(Cl)cc12 [Compound 27, 6-Chloro-2-((4-morpholinobutyl)amino)-N-(2-(pyrrolidin-1-yl)ethyl)quinoline-4-carboxamide] | 0.51 |  |  | 6.2 | 17 fold
O=C(NCCN1CCCC1)c1cc(NCCCN2CCOCC2)nc2ccc(F)cc12 [Compound 25, 6-Fluoro-2-((3-morpholinopropyl)amino)-N-(2-(pyrrolidin-1-yl)ethyl)quinoline-4-carboxamide] | 0.41 |  | <0.5 mL min^–1 g^–1 | 5.4 | 

— publication PMC5108032, “Discovery of a Quinoline-4-carboxamide Derivative with a Novel Mechanism of Action, Multistage Antimalarial Activity, and Potent in Vivo Efficacy” (Journal of Medicinal Chemistry, 2016)
